Earlier results as cited in patent publication US20090304885A1, “Coffee and Tea Baking Compounds and Method of Producing The Same” (priority 2008, published 2009).

How the values were obtained:
[1] = animal models
[2] = system: methylazoxymethanol-induced large intestinal tumors; details: hamster

Structure (SMILES) | cancer preventive activities [1] | antibacterial effect (Enterobacter cloacae) | antibacterial effect (Serratia marcescens) | inhibition of tumors [2]
O=C(O)/C=C/c1ccc(O)c(O)c1 [caffeic acid] | exert cancer preventive activities | – | – | –
Cn1c(=O)c2c(ncn2C)n(C)c1=O [caffeine] | – | particularly strong effect | particularly strong effect | –
O=C(/C=C/c1ccc(O)c(O)c1)O[C@@H]1C[C@](O)(C(=O)O)C[C@@H](O)[C@H]1O [chlorogenic acid] | – | particularly strong effect | particularly strong effect | inhibit
O=C(O)/C=C/c1ccc(O)cc1 [para-coumaric acid] | exert cancer preventive activities | – | – | –
O=C(O)c1ccc(O)c(O)c1 [protocatechuic acid] | – | particularly strong effect | particularly strong effect | –
